Data as given in PubChem BioAssay AID328 (DTP/NCI, 2004).
Values joined by “and” are separate entries in the source; they are usually repeats but may differ in a detail not shown here. Identical values can stand only once. Toxic doses and inconclusive results are not listed.

Tested on: BDF1 mice, P388 leukemia ip, median survival T/C
Assay: NCI In Vivo Anticancer Drug Screen. Data for tumor model P388 Leukemia (intraperitoneal) in B6D2F1 (BDF1) mice
Conditions: endpoint: median survival time, higher = longer survival
Outline: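 T/C = treated-group survival ÷ vehicle-control survival; tumour transplanted into mice before dosing.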

[1] = dose: 100.0 mg/kg/injection, schedule: Q04DX002 (ip), vehicle: saline with Tween-80
[2] = dose: 200.0 mg/kg/injection, schedule: Q04DX002 (ip), vehicle: saline with Tween-80
[3] = dose: 400.0 mg/kg/injection, schedule: Q04DX002 (ip), vehicle: saline with Tween-80
[4] = dose: 12.5 mg/kg/injection, schedule: Q01DX009 (ip), vehicle: saline
[5] = dose: 25.0 mg/kg/injection, schedule: Q01DX009 (ip), vehicle: saline
[6] = dose: 50.0 mg/kg/injection, schedule: Q04DX003 (ip), vehicle: saline with Tween-80
[7] = dose: 50.0 mg/kg/injection, schedule: Q01DX009 (ip), vehicle: saline with Tween-80
[8] = dose: 100.0 mg/kg/injection, schedule: Q01DX009 (ip), vehicle: saline with Tween-80
[9] = dose: 200.0 mg/kg/injection, schedule: Q01DX009 (ip), vehicle: saline with Tween-80
[10] = dose: 100.0 mg/kg/injection, schedule: Q04DX003 (ip), vehicle: saline with Tween-80
[11] = dose: 400.0 mg/kg/injection, schedule: Q04DX003 (ip), vehicle: saline with Tween-80

Structure (SMILES): CCCc1c(N)c2ccccc2c2ccccc12
- T/C [1]: 86 % of control
- T/C [2]: 96 % of control
- T/C [3]: 102 % of control

Structure (SMILES): CC(=O)OCc1c(O)c2c(c(O)c1COC(C)=O)C(=O)C=CC2=O
- T/C (dose: 1.56 mg/kg/injection, schedule: Q01DX009 (ip), vehicle: saline): 107 % of control
- T/C (dose: 3.12 mg/kg/injection, schedule: Q01DX009 (ip), vehicle: saline): 96 % of control
- T/C (dose: 6.25 mg/kg/injection, schedule: Q01DX009 (ip), vehicle: saline): 105 % of control
- T/C [4]: 87 % of control
- T/C [5]: 94 % of control

Structure (SMILES): CCCCCCN(CCCCCC)P(=O)(N1CC1)N1CC1
- T/C (dose: 14.0 mg/kg/injection, schedule: Q04DX003 (ip), vehicle: saline): 95 % of control
- T/C (dose: 21.0 mg/kg/injection, schedule: Q04DX003 (ip), vehicle: saline): 104 % of control
- T/C (dose: 33.0 mg/kg/injection, schedule: Q04DX003 (ip), vehicle: saline with Tween-80): 100 % of control and 118 % of control
- T/C [6]: 150 % of control
- T/C (dose: 75.0 mg/kg/injection, schedule: Q04DX003 (ip), vehicle: saline with Tween-80): 181 % of control

Structure (SMILES): O=C(CC(O)(C(F)(F)F)C(F)(F)F)c1ccc([N+](=O)[O-])cc1
- T/C (dose: 100.0 mg/kg/injection, schedule: Q01DX009 (ip), vehicle: other): 95 % of control
- T/C (dose: 100.0 mg/kg/injection, schedule: Q04DX003 (ip), vehicle: other): 110 % of control
- T/C (dose: 200.0 mg/kg/injection, schedule: Q01DX009 (ip), vehicle: other): 95 % of control
- T/C (dose: 200.0 mg/kg/injection, schedule: Q04DX003 (ip), vehicle: other): 95 % of control
- T/C (dose: 400.0 mg/kg/injection, schedule: Q01DX009 (ip), vehicle: other): 100 % of control
- T/C (dose: 400.0 mg/kg/injection, schedule: Q04DX003 (ip), vehicle: other): 100 % of control

Structure (SMILES): Oc1c(Cl)cc(Cl)cc1C1N=NC2=C(CCCC2)N1O (stereo not given)
- T/C [7]: 106 % of control
- T/C [8]: 88 % of control
- T/C [9]: 93 % of control

Structure (SMILES): O=[N+]([O-])c1ccc(N2CC2)c2c1no[n+]2[O-]
- T/C (dose: 15.0 mg/kg/injection, schedule: Q04DX003 (ip), vehicle: saline with Tween-80): 109 % of control

Structure (SMILES): C1=C(c2ccccc2)C(c2ccccc2)C(c2ccccc2)C/C1=N/OCCN1CCCC1 (stereo not given)
- T/C (dose: 6.0 mg/kg/injection, schedule: Q01DX009 (ip), vehicle: saline with Tween-80): 108 % of control
- T/C (dose: 6.0 mg/kg/injection, schedule: Q04DX003 (ip), vehicle: saline with Tween-80): 118 % of control
- T/C (dose: 8.0 mg/kg/injection, schedule: Q01DX009 (ip), vehicle: saline with Tween-80): 100 % of control
- T/C (dose: 12.0 mg/kg/injection, schedule: Q01DX009 (ip), vehicle: saline with Tween-80): 115 % of control
- T/C (dose: 18.0 mg/kg/injection, schedule: Q01DX009 (ip), vehicle: saline with Tween-80): 107 % of control
- T/C (dose: 25.0 mg/kg/injection, schedule: Q04DX003 (ip), vehicle: saline with Tween-80): 100 % of control

Structure (SMILES): O=C1Oc2ccccc2C(=O)/C1=C1\SSC(c2ccccc2)=C1c1ccccc1
- T/C [7]: 99 % of control
- T/C [8]: 96 % of control
- T/C [9]: 96 % of control

Structure (SMILES): Cc1nc(Cl)c2cnccn12
- T/C [4]: 100 % of control
- T/C [5]: 95 % of control
- T/C (dose: 50.0 mg/kg/injection, schedule: Q01DX009 (ip), vehicle: saline): 86 % of control

Structure (SMILES): C=C(C)C(=O)NCCC(=O)Oc1ccc([N+](=O)[O-])cc1
- T/C [7]: 95 % of control
- T/C [8]: 87 % of control
- T/C [9]: 86 % of control

Structure (SMILES): CC1CNC(=S)O1 (stereo not given)
- T/C [6]: 90 % of control
- T/C [10]: 120 % of control
- T/C (dose: 200.0 mg/kg/injection, schedule: Q04DX003 (ip), vehicle: saline with Tween-80): 90 % of control
- T/C [11]: 115 % of control

Structure (SMILES): Cc1cc(=O)[nH]c2c1CCCCC2
- T/C (dose: 50.0 mg/kg/injection, schedule: Q01DX001 (ip), vehicle: saline sonified): 104 % of control
- T/C (dose: 100.0 mg/kg/injection, schedule: Q01DX001 (ip), vehicle: saline sonified): 95 % of control

Structure (SMILES): O=c1[nH]c(=O)n(O)c2nc[nH]c12
- T/C (dose: 25.0 mg/kg/injection, schedule: Q04DX003 (ip), vehicle: saline): 100 % of control
- T/C (dose: 37.5 mg/kg/injection, schedule: Q01DX001 (ip), vehicle: saline): 100 % of control
- T/C (dose: 50.0 mg/kg/injection, schedule: Q04DX003 (ip), vehicle: saline): 100 % of control
- T/C (dose: 75.0 mg/kg/injection, schedule: Q01DX001 (ip), vehicle: saline): 109 % of control
- T/C (dose: 75.0 mg/kg/injection, schedule: Q01DX009 (ip), vehicle: saline): 90 % of control
- T/C (dose: 100.0 mg/kg/injection, schedule: Q04DX003 (ip), vehicle: saline): 118 % of control

Structure (SMILES): NC(=S)N1N=C(c2cccc([N+](=O)[O-])c2)CCC1=O
- T/C [10]: 100 % of control
- T/C [11]: 100 % of control

Structure (SMILES): COc1ccc(-c2nc3c(=O)n(C)c(=O)n(C)c3nc2-c2ccc(OC)cc2)cc1
- T/C [1]: 104 % of control
- T/C [2]: 97 % of control
- T/C [3]: 97 % of control
